# Measurements as given in patent US4560545A, “Basic aluminum magnesium carbonate” (Anphar S.A., priority 1978, dated 1985).
# Read-outs that look alike come from different tables or passages of the source.
# How the values were obtained:
# [1] = antacid activity in simulated gastric juice (modified Holbert technique, automatic titrator); assay type: physicochemical; settings: for Vol. of gastric juice added: added at 0.7 ml/min. until pH fell below 3; for pH of suspension after 1 min.: about 0.125 g powder in 20 ml, 37° C.
# Protocol: Approximately 0.125 g of powder was added to 20 ml of simulated gastric juice (U.S.P.) and stirred vigorously at 37° C. The pH was registered at 1, 5 and 10 minutes and then the automatic burette was started and synthetic gastric juice was added at a rate of 0.7 ml/min. until the pH fell below 3. The time taken and the amount of gastric juice added to reach pH 3 was observed.
# [2] = Protocol: The ability of compound I to absorb bile acids was measured at pH 7 and pH 4 (the analytical method was based on the reaction between sulphuric acid, furfural and cholic acid; Pettenkofer, Ann. Chem. Pharm. 52, 90, 1884). The product was suspended in the appropriate buffer and a solution of the bile acid or ox bile was added, samples being taken at intervals of time.
# [3] = test system: ulcers; experiment: 18 hour pyloric ligature: incidence of ulcers; assay type: in vivo; settings: rats, 18 hours ligature
# [4] = test system: gastric acid secretion; settings: human volunteers, pentagastrin 6 μg/kg i.m., 1 g suspension 30 minutes later, versus aluminium hydroxide gel
# Protocol: Gastric acid secretion was induced by injection of pentagastrin (6 μg/kg i.m.). Thirty minutes later a suspension of 1 g of compound I or aluminium hydroxide was given (2 groups of 6 volunteers, double blind parallel). Samples of gastric juice were taken before giving pentagastrin (basal level), 30 minutes after injection of pentagastrin and at intervals of 30, 60, 90 and 120 minutes after giving the antacids. In each case the pH, free acid content and pepsin content were measured.
# [5] = pH stat, pH 4, suspension in water
# [6] = test system: ulcers; experiment: bile-sensitized stomach, ulcerogenic action of indomethacin; settings: rat stomach sensitized with bile, 31.25-125 mg/kg orally
# Description: (§1) In a further series of experiments the detergent action of bile was used to sensitize the rat stomach to the ulcerogenic action of indomethacin.
# [7] = test system: pepsin; settings: rats, 4 hour ligature; for reduction of pepsin enzyme activity of gastric juice: at the higher doses
# Description: as §1
# [8] = 4 hour pyloric ligature of the stomach: pH and total acid content of stomach contents; settings: rats, 31.25-500 mg/kg orally 1 hour before sacrifice
# Description: as §1
# [9] = gastric juice DP, double quantity of pepsin
# [10] = gastric juice DP, with double quantity of pepsin
# [11] = gastric juice N, normal U.S.P. simulated gastric juice
# [12] = gastric juice SP, without pepsin
Molecule,"Vol. of gastric juice added [1, 9]","pH of suspension after 1 min. [1, 10]","pH of suspension after 1 min. [1, 11]","Vol. of gastric juice added ([1]; gastric juice N, normal U.S.P.)","pH of suspension after 1 min. [1, 12]","Vol. of gastric juice added [1, 12]",reduction of the incidence of ulcers (inhibition) [6],reduction of pepsin enzyme activity of gastric juice [7],effect on pH of the stomach contents [8],reduction of total acid content [8],further results
Magaldrate U.S.P. [F2],2.40 mL,2.65,1.95,1.70 mL,1.40,1.92 mL,,,,,
basic aluminium magnesium carbonate [compound I],22.36 mL,4.55,4.25,21.2 mL,4.00,10.9 mL,up to 54%,78.9%,dose dependent increases in the pH of the stomach contents,up to 85%,"buffering capacity ([1]; U.S.P. simulated gastric juice): highest buffering capacity; velocity of neutralisation ([1]; pH after 1 minute in the optimal zone, pH 3-5): high velocity of neutralisation; ability to absorb acid in the presence of pepsin ([1]; simulated gastric juice with pepsin versus without): increased ability to absorb acid in the presence of pepsin; Percentage absorption of bile acids ([2]; Cholic Acid, Buffer pH 4, 1 hr): 80.5 Percentage; Percentage absorption of bile acids ([2]; Cholic Acid, Buffer pH 4, 3 hr): 86.3 Percentage; Percentage absorption of bile acids ([2]; Cholic Acid, Buffer pH 7, 1 hr): 0 Percentage; Percentage absorption of bile acids ([2]; Cholic Acid, Buffer pH 7, 3 hr): 12 Percentage; Percentage absorption of bile acids ([2]; Ox bile, Buffer pH 4, 1 hr): 69.0 Percentage; Percentage absorption of bile acids ([2]; Ox bile, Buffer pH 4, 3 hr): 70.0 Percentage; Percentage absorption of bile acids ([2]; Ox bile, Buffer pH 7, 1 hr): 17.3 Percentage; Percentage absorption of bile acids ([2]; Ox bile, Buffer pH 7, 3 hr): 25.8 Percentage; Percentage absorption of bile acids ([2]; Taurocholic acid, Buffer pH 4, 1 hr): 65.4 Percentage; Percentage absorption of bile acids ([2]; Taurocholic acid, Buffer pH 4, 3 hr): 71.7 Percentage; Percentage absorption of bile acids ([2]; Taurocholic acid, Buffer pH 7, 1 hr): 0.6 Percentage; Percentage absorption of bile acids ([2]; Taurocholic acid, Buffer pH 7, 3 hr): 20.8 Percentage; reduction in the incidence of ulcers compared with placebo treated controls ([3]; 31.25 mg/kg orally at the same time as the operation): 58%; antipepsin effect (pepsin content of gastric juice) [4]: greater antipepsin effect; reduction of free hydrochloric acid levels in gastric juice [4]: reduced the free hydrochloric acid levels more rapidly and had a longer duration of action than aluminium hydroxide gel; acid-binding capacity [5]: higher at pH 4 than any of the other substances; reduction of pepsin enzyme activity, pH of the gastric juice readjusted to 2 ([7]; higher doses, pH readjusted to 2 (optimal for pepsin activity)): 32.5%"
dry aluminium hydroxide gel U.S.P. [F1],4.80 mL,2.79,2.93,7.40 mL,3.30,17.43 mL,,,,,
"[OH][Al]([OH])[OH] [aluminium hydroxide, reference compound]",,,,,,,32%,without effect on the pepsin activity,much less influence on pH,12%,reduction in ulceration ([3]; 125 mg/kg): 43%
